Columns and labels:
[1] = target: T1, Human melanin-concentrating hormone (MCH1) (Homo sapiens, UniProt Q99705); test: Radioligand binding, human melanin-concentrating hormone MCH1 membranes, FlashPlate, [125I]-S36057; conditions: compound at 10 μM; for A6 radioligand binding inhibition: human MCH1 membranes; for A6: inhibition of radioligand binding, human melanin-concentrating hormone (MCH1): [125I]-S36057
T1 construct: purchased Perkin Elmer Biosignal
How it was run: (§1)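 Cloned human receptor membranes were coated onto FlashPlate wells and incubated with radioligand and compound (added from a 0.5 mM DMSO daughter plate) for 1 hour at room temperature in the dark. Scintillation counting gave percent inhibition, with DMSO defining total and reference ligand defining non-specific binding.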

[2] = target: T2, Human Melanocortin (MC3) (Homo sapiens, UniProt P41968); test: Radioligand binding, human melanocortin MC3 membranes, FlashPlate, [125I]-NDP-αMSH; conditions: compound at 10 μM; for A3 radioligand binding inhibition: human melanocortin MC3 membranes
T2 construct: purchased Perkin Elmer Biosignal
How it was run: as §1

[3] = target: T3, Mouse urotensin (mUR2) (Mus musculus, UniProt Q8VIH9); test: Radioligand binding, mouse urotensin mUR2 membranes, FlashPlate, [125I]-Urotensin II; conditions: compound at 10 μM; for A11 radioligand binding inhibition: mouse urotensin mUR2 membranes
T3 construct: purchased Perkin Elmer Biosignal
T3 sequence (Q8VIH9 1-385): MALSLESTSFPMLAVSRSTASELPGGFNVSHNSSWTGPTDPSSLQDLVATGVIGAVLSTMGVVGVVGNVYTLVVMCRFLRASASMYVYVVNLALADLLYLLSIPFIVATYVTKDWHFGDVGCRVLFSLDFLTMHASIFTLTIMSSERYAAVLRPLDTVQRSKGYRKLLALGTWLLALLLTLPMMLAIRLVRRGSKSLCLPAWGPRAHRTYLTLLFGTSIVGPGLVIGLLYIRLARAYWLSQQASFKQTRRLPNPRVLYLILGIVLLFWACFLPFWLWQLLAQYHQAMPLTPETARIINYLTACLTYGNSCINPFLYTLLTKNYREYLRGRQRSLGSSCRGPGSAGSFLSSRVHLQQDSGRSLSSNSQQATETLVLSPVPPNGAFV
How it was run: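 Cloned mouse urotensin (mUR2) receptor membranes from Perkin Elmer Biosignal were immobilized in FlashPlate microplates using a proprietary coating. Each well got 19.5 μl buffer, then 0.5 μl of DMSO, reference ligand, or compound. Adding 5 μl of [125I]-Urotensin II, diluted to 5× final concentration in binding buffer, started binding. Plates were sealed with TopSeal-A and incubated 1 hour at room temperature in the dark. Wells were counted for 30 seconds each on a TopCount after a 60-second delay, and percentage inhibition was calculated.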

[4] = target: T4, Human μ-opioid (MOP) (Homo sapiens, UniProt P35372); test: Radioligand binding, human μ-opioid (MOP) membranes, FlashPlate, [3H]-Naloxone; conditions: compound at 10 μM; for A7 radioligand binding inhibition: human μ-opioid (MOP) membranes
T4 construct: purchased Perkin Elmer Biosignal
How it was run: as §1

[5] = target: T5, Human neurokinin (NK1) (Homo sapiens, UniProt P25103); test: Radioligand binding, human neurokinin NK1 membranes, filtration, [125I]-Substance P; conditions: compound at 10 μM; for A8 radioligand binding inhibition: human neurokinin NK1 membranes
T5 construct: purchased Perkin Elmer Biosignal
How it was run: (§2)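 Filtration binding on cloned human receptor membranes (1 Unit/well), [125I]-Substance P for NK1 and [3H]-Diprenorphine for KOP, 1 h at room temperature. Filters PEI-presoaked, washed with cold 50 mM Tris-HCl pH 7.4, counted by scintillation; percent inhibition calculated, reference ligand defining non-specific binding.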

[6] = target: T6, Human κ-Opioid (KOP) (Homo sapiens, UniProt P41145); test: Radioligand binding, human κ-opioid (KOP) membranes, filtration, [3H]-Diprenorphine; conditions: compound at 10 μM; for A2 radioligand binding inhibition: human κ-opioid (KOP) membranes
T6 construct: purchased Perkin Elmer Biosignal
How it was run: as §2

[7] = target: T7, Human opioid (ORL1) (Homo sapiens, UniProt P41146); test: Radioligand binding, human opioid ORL1 membranes, FlashPlate, [125I]-Nociceptin; conditions: compound at 10 μM; for A10 radioligand binding inhibition: human ORL1 membranes
T7 construct: purchased Perkin Elmer Biosignal
How it was run: as §1

[8] = target: T8, Human melanocortin (MC5) (Homo sapiens, UniProt P33032); test: Radioligand binding, human melanocortin MC5 membranes, FlashPlate, [125I]-NDP-αMSH; conditions: compound at 10 μM; for A5 radioligand binding inhibition: human melanocortin MC5 membranes
T8 construct: purchased Perkin Elmer Biosignal
How it was run: as §1

[9] = target: T9, Human neuropeptide Y (NPY-Y1) (Homo sapiens, UniProt P25929); test: Radioligand binding, human neuropeptide Y NPY-Y1 membranes, FlashPlate, [125I]-PYY; conditions: compound at 10 μM; for A9 radioligand binding inhibition: human NPY-Y1 membranes
T9 construct: purchased Perkin Elmer Biosignal
T9 sequence (P25929 1-384): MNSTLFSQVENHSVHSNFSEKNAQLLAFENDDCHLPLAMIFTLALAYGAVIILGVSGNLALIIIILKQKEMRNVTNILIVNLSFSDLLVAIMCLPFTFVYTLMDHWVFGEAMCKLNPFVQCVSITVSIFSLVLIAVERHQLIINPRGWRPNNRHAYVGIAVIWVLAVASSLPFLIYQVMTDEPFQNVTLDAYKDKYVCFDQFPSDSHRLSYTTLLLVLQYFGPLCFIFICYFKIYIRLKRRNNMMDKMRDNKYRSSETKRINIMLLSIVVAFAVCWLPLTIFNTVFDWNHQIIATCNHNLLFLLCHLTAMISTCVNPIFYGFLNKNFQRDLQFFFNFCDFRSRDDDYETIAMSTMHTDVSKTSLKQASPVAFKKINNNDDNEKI
How it was run: as §1

[10] = target: T10, Human Melanocortin (MC4) (Homo sapiens, UniProt P32245); test: Radioligand binding, human melanocortin MC4 membranes, FlashPlate, [125I]-NDP-αMSH; conditions: compound at 10 μM; for A4 radioligand binding inhibition: human melanocortin MC4 membranes
T10 construct: purchased Perkin Elmer Biosignal
How it was run: as §1

[11] = target: T11, Human δ-opioid (DOP) (Homo sapiens, UniProt P41143); test: Radioligand binding, human δ-opioid (DOP) membranes, FlashPlate, [3H]-Bremazocine; conditions: compound at 10 μM; for A1 radioligand binding inhibition: human δ-opioid (DOP) membranes
T11 construct: purchased Perkin Elmer Biosignal
How it was run: as §1

T4 sequence (P35372 whole entry): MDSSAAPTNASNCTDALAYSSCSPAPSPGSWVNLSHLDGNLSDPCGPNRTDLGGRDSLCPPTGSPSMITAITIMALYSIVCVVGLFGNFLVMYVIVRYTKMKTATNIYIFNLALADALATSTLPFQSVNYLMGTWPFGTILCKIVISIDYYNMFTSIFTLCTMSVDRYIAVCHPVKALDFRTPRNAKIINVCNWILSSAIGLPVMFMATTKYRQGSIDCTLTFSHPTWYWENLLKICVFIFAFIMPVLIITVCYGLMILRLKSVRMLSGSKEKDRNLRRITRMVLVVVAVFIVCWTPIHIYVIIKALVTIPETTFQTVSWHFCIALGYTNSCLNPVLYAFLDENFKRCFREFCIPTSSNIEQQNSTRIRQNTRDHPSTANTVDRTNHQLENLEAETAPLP
T5 sequence (P25103 whole entry): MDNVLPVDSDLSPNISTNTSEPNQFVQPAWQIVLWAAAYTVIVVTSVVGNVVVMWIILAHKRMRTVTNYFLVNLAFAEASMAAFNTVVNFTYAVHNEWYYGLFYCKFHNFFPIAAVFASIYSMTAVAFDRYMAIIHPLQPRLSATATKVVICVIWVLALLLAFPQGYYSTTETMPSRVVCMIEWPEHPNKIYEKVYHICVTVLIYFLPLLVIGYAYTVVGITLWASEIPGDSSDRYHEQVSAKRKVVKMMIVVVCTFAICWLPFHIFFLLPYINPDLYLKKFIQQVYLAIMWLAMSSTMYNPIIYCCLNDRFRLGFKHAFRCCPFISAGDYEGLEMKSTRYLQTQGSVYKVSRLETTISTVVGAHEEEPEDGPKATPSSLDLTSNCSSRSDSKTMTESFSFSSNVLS
T1 sequence (Q99705 whole entry): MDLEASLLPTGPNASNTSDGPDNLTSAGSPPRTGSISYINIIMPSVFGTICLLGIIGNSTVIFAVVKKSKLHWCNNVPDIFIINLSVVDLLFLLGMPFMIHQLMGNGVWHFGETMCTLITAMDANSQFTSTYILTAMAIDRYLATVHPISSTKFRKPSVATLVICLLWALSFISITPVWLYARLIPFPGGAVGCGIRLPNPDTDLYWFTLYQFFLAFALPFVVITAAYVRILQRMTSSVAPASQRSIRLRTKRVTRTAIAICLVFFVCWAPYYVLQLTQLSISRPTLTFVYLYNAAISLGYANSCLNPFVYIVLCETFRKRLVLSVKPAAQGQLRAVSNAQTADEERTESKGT
T6 sequence (P41145 whole entry): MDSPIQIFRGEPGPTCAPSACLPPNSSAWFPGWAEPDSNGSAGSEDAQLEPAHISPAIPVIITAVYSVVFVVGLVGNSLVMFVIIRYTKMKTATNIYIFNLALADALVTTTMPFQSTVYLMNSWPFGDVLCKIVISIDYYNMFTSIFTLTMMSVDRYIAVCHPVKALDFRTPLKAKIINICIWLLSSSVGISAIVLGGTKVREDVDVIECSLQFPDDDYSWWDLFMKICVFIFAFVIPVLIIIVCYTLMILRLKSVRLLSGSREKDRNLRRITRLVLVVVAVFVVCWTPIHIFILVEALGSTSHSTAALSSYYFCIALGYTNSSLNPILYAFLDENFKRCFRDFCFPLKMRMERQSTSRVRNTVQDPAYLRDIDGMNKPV
T7 sequence (P41146 whole entry): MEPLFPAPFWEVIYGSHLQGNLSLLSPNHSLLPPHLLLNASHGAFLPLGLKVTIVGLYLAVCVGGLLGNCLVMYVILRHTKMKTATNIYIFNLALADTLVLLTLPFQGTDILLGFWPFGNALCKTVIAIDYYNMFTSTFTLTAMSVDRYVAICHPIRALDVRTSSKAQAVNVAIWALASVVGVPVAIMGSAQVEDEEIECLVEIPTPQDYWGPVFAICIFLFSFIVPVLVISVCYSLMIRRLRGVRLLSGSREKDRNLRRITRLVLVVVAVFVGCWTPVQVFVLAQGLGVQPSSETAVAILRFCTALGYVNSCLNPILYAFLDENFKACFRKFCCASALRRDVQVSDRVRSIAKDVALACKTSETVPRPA
T11 sequence (P41143 whole entry): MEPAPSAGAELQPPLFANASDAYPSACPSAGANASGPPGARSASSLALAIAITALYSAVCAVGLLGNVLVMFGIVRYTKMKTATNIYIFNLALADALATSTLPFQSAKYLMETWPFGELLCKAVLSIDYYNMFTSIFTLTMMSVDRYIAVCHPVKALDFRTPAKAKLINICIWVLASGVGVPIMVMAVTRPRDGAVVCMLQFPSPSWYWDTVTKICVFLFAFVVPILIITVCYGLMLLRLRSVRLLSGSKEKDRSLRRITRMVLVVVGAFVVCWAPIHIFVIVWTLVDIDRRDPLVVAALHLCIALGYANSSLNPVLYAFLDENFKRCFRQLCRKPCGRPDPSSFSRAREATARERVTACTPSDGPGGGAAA
T2 sequence (P41968 whole entry): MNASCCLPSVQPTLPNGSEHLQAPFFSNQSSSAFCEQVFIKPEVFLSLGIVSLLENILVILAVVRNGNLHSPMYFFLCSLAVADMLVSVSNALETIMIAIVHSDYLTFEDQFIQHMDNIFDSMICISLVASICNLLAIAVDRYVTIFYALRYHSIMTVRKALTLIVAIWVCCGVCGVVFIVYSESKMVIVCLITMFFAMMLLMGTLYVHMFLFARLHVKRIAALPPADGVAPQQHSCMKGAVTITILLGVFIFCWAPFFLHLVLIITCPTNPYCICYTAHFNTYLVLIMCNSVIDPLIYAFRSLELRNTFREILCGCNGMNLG
T10 sequence (P32245 whole entry): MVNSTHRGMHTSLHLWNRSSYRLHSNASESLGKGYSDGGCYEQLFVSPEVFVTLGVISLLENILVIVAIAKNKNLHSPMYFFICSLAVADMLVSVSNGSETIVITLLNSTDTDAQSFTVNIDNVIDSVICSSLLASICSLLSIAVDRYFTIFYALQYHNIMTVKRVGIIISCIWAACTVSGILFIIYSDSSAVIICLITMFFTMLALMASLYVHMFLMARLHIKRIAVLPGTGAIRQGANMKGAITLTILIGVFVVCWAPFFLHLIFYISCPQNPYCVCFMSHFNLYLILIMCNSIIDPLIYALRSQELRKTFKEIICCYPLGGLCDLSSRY
T8 sequence (P33032 whole entry): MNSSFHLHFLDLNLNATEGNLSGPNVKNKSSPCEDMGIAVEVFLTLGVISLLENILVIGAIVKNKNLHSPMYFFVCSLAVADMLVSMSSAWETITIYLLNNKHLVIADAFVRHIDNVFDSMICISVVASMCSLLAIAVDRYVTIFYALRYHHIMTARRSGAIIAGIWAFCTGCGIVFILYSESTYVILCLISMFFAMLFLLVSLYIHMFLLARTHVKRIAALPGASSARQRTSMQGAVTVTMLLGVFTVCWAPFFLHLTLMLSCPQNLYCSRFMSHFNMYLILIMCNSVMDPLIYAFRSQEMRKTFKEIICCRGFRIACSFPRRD

Structure (SMILES) | A6 radioligand binding inhibition [1] | A3 radioligand binding inhibition [2] | A11 radioligand binding inhibition [3] | A7 radioligand binding inhibition [4] | A8 radioligand binding inhibition [5] | A2 radioligand binding inhibition [6] | A10 radioligand binding inhibition [7] | A5 radioligand binding inhibition [8] | A9 radioligand binding inhibition [9] | A4 radioligand binding inhibition [10] | A1 radioligand binding inhibition [11] | A6: inhibition of radioligand binding, human melanin-concentrating hormone (MCH1) [1] | A3: inhibition of radioligand binding, human melanocortin (MC3) ([2]; [125I]-NDP-αMSH) | A11: inhibition of radioligand binding, mouse urotensin (mUR2) ([3]; [125I]-Urotensin II) | A7: inhibition of radioligand binding, human μ-opioid (MOP) ([4]; [3H]-Naloxone) | A8: inhibition of radioligand binding, human neurokinin (NK1) ([5]; [125I]-Substance P) | A2: inhibition of radioligand binding, human κ-opioid (KOP) ([6]; [3H]-Diprenorphine) | A10: inhibition of radioligand binding, human opioid (ORL1) ([7]; [125I]-Nociceptin) | A5: inhibition of radioligand binding, human melanocortin (MC5) ([8]; [125I]-NDP-αMSH) | A9: inhibition of radioligand binding, human neuropeptide Y (NPY-Y1) ([9]; [125I]-PYY) | further results
COC[C@H]1OC(OCc2ccccc2)[C@H](NC(=O)CCNC(=N)N)[C@@H](OCc2ccc(-c3ccccc3)cc2)[C@@H]1O (stereo partly shown) [compound 24] | + (“+” indicates greater than 50% inhibition at 10 μM) | − (“−” indicates less than 50% inhibition at 10 μM) | − (“−” indicates less than 50% inhibition at 10 μM) | − (“−” indicates less than 50% inhibition at 10 μM) | + (“+” indicates greater than 50% inhibition at 10 μM) | − (“−” indicates less than 50% inhibition at 10 μM) | − (“−” indicates less than 50% inhibition at 10 μM) | + (“+” indicates greater than 50% inhibition at 10 μM) | − (“−” indicates less than 50% inhibition at 10 μM) | − (“−” indicates less than 50% inhibition at 10 μM) | − (“−” indicates less than 50% inhibition at 10 μM) |  |  |  |  |  |  |  |  |  | 
CO[C@H]1[C@H](O)[C@@H](COCc2ccc(-c3ccccc3)cc2)OC(OCc2ccccc2)[C@@H]1NC(=O)CCCN (stereo partly shown) [compound 84] | − (“−” indicates less than 50% inhibition at 10 μM) | − (“−” indicates less than 50% inhibition at 10 μM) | − (“−” indicates less than 50% inhibition at 10 μM) | − (“−” indicates less than 50% inhibition at 10 μM) | + (“+” indicates greater than 50% inhibition at 10 μM) | − (“−” indicates less than 50% inhibition at 10 μM) | − (“−” indicates less than 50% inhibition at 10 μM) | − (“−” indicates less than 50% inhibition at 10 μM) | − (“−” indicates less than 50% inhibition at 10 μM) | − (“−” indicates less than 50% inhibition at 10 μM) | − (“−” indicates less than 50% inhibition at 10 μM) |  |  |  |  |  |  |  |  |  | 
CSC1O[C@H](COCc2ccc3ccccc3c2)[C@@H](O)[C@@H](OCc2ccc(-c3ccccc3)cc2)[C@H]1NC(=O)CCCN (stereo partly shown) [compound 299] |  |  |  |  |  |  |  |  |  |  |  | − (“−” indicates less than 50% inhibition at 10 μM) | − (“−” indicates less than 50% inhibition at 10 μM) | − (“−” indicates less than 50% inhibition at 10 μM) | − (“−” indicates less than 50% inhibition at 10 μM) | + (“+” indicates greater than 50% inhibition at 10 μM) | − (“−” indicates less than 50% inhibition at 10 μM) | − (“−” indicates less than 50% inhibition at 10 μM) | − (“−” indicates less than 50% inhibition at 10 μM) | − (“−” indicates less than 50% inhibition at 10 μM) | A4: inhibition of radioligand binding, human melanocortin (MC4) ([10]; [125I]-NDP-αMSH): + (“+” indicates greater than 50% inhibition at 10 μM); A1: inhibition of radioligand binding, human δ-opioid (DOP) ([11]; [3H]-Bremazocine): − (“−” indicates less than 50% inhibition at 10 μM)
COC[C@H]1OC(OCc2ccc3ccccc3c2)[C@H](NC(=O)CCCNC(=N)N)[C@@H](OCc2ccc(Cl)cc2)[C@@H]1O (stereo partly shown) [compound 341] |  |  |  |  |  |  |  |  |  |  |  | + (“+” indicates greater than 50% inhibition at 10 μM) | − (“−” indicates less than 50% inhibition at 10 μM) | − (“−” indicates less than 50% inhibition at 10 μM) | + (“+” indicates greater than 50% inhibition at 10 μM) | + (“+” indicates greater than 50% inhibition at 10 μM) | − (“−” indicates less than 50% inhibition at 10 μM) | − (“−” indicates less than 50% inhibition at 10 μM) | − (“−” indicates less than 50% inhibition at 10 μM) | − (“−” indicates less than 50% inhibition at 10 μM) | A4: inhibition of radioligand binding, human melanocortin (MC4) ([10]; [125I]-NDP-αMSH): − (“−” indicates less than 50% inhibition at 10 μM); A1: inhibition of radioligand binding, human δ-opioid (DOP) ([11]; [3H]-Bremazocine): − (“−” indicates less than 50% inhibition at 10 μM)
CSC1O[C@H](COCc2ccc3ccccc3c2)[C@@H](O)[C@@H](OCc2ccc(Cl)cc2)[C@H]1NC(=O)CNC(=N)N (stereo partly shown) [compound 281] |  |  |  |  |  |  |  |  |  |  |  |  |  |  |  |  |  |  |  |  | A6: inhibition of radioligand binding ([1]; [125I]-S36057, FlashPlate): − (“−” indicates less than 50% inhibition at 10 μM); A3: inhibition of radioligand binding ([2]; [125I]-NDP-αMSH, FlashPlate): + (“+” indicates greater than 50% inhibition at 10 μM); A11: inhibition of radioligand binding ([3]; [125I]-Urotensin II, FlashPlate): − (“−” indicates less than 50% inhibition at 10 μM); A7: inhibition of radioligand binding ([4]; [3H]-Naloxone, FlashPlate): − (“−” indicates less than 50% inhibition at 10 μM); A8: inhibition of radioligand binding ([5]; [125I]-Substance P, filtration): + (“+” indicates greater than 50% inhibition at 10 μM); A2: inhibition of radioligand binding ([6]; [3H]-Diprenorphine, filtration): − (“−” indicates less than 50% inhibition at 10 μM); A10: inhibition of radioligand binding ([7]; [125I]-Nociceptin, FlashPlate): − (“−” indicates less than 50% inhibition at 10 μM); A5: inhibition of radioligand binding ([8]; [125I]-NDP-αMSH, FlashPlate): + (“+” indicates greater than 50% inhibition at 10 μM); A9: inhibition of radioligand binding ([9]; [125I]-PYY, FlashPlate): − (“−” indicates less than 50% inhibition at 10 μM); A4: inhibition of radioligand binding ([10]; [125I]-NDP-αMSH, FlashPlate): + (“+” indicates greater than 50% inhibition at 10 μM); A1: inhibition of radioligand binding ([11]; [3H]-Bremazocine, FlashPlate): − (“−” indicates less than 50% inhibition at 10 μM)
